Assay results: US20090004185A1, “AMINO-SUBSTITUTED QUINAZOLINE DERIVATIVES AS INHIBITORS OF BETA-CATENIN/TCF-4 PATHWAY AND CANCER TREATMENT AGENTS” (WYETH, priority 2007, published 2009)

Legend:
β-catenin/Tcf-4 = test: cells; assay type: cell-based; conditions: 24 hours of incubation with compound, ratio Firefly/Renilla luciferase
Outline: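 SW480-derived lines with integrated reporters (Tcf-4-driven firefly luciferase; SV40 firefly as specificity control; SV40 Renilla for cell number/toxicity), treated 24 hours with titrated compounds, final 0.316% DMSO. Dual-luciferase read-out; firefly/Renilla ratio as % of control, duplicate plates, IC50 (nM) from curve fit.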

SV40-Luc = SV40-Luc control luciferase reporter assay, SV 5A8 cell line (SV40-Luc and SV40-R-Luc), control for non-specific inhibitors; assay type: cell-based, human; conditions: SV 5A8 cells derived from SW480, 24 hours of incubation with compound, ratio Firefly/Renilla luciferase
Outline: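 Compound exposure lasted 24 h, starting 20-24 h after seeding 1×10^4 cells/well, with titrated doses and 0.316% final DMSO. Readout was dual firefly/Renilla luminescence; Renilla under an SV40 promoter corrects for cell number and toxicity, and SV 5A8 (SV40 firefly) flags non-specific inhibitors versus Tcf-4-driven lines 33.13 and 22C11. IC50s came from the F/R ratio (% of control).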

[1] = Homo sapiens, SW480, 24 h, Tcf 33.13 cells derived from SW480
[2] = Homo sapiens, Tcf22C11, 24 h, Tcf 22C11 cells derived from SW480
[3] = Tcf 22C11 cells derived from SW480
[4] = Tcf 33.13 cells derived from SW480

Row | IC50 (β-catenin/Tcf-4; [1]) | IC50 (β-catenin/Tcf-4; [2]) | IC50 (SV40-Luc; Homo sapiens, SV5A8, 24 h) | IC50 (β-catenin/Tcf-4; [3]) | IC50 (β-catenin/Tcf-4; [4]) | IC50 (SV40-Luc) | Compound
1 | 1720 nM | 1880 nM | > 5590 nM |  |  |  | CNc1nc(NCc2ccc(NC(=O)c3ccc(Cl)nc3)cc2)c2cc(C)cc(C)c2n1 [Example 23, 6-chloro-N-[4-({[6,8-dimethyl-2-(methylamino)quinazolin-4-yl]amino}methyl)phenyl]nicotinamide]
2 | 203 nM | 215 nM | > 7870 nM |  |  |  | Cc1ccc2c(N[C@@H](C)c3ccc(NC(=O)C4CCN(Cc5ccc(F)c(F)c5)CC4)cc3)nc(N(C)C)nc2c1 [Example 268, 1-(3,4-difluorobenzyl)-N-[4-((1S)-1-{[2-(dimethylamino)-7-methylquinazolin-4-yl]amino}ethyl)phenyl]piperidine-4-carboxamide]
3 |  |  |  | 436 nM | 359 nM | > 5080 nM | C/C=C/c1ccc2nc(N(C)C)nc(NCc3ccc(C(=O)Nc4ccc(F)cc4)cc3)c2c1 [Example 174, E-4-((2-dimethylamino)-6-(prop-1-enyl)quinazolin-4-ylamino)methyl-N-(4-fluorophenyl)benzamide]
4 |  |  |  | 1620 nM | 2050 nM | > 11600 nM | Cc1ccc2nc(N(C)C)nc(NCc3ccc(NC(=O)c4ccc(F)cc4)cc3)c2c1 [Example 40, N-[4-({[2-(dimethylamino)-6-methylquinazolin-4-yl]amino}methyl)phenyl]-4-fluorobenzamide]
5 | 1720 nM | 1280 nM | > 2790 nM |  |  |  | CNc1nc(NCc2ccc(NC(=O)c3ccc(Cl)cc3)cc2)c2cc(OC)ccc2n1 [Example 33, 4-chloro-N-[4-({[6-methoxy-2-(methylamino)quinazolin-4-yl]amino}methyl)phenyl]benzamide]
6 | 1260 nM | 2290 nM | > 11300 nM |  |  |  | CCN(CC)c1nc(NCc2ccc(NC(=O)c3ccc(F)cc3)cc2)c2ccccc2n1 [Example 122, N-[4-({[2-(diethylamino)quinazolin-4-yl]amino}methyl)phenyl]-4-fluorobenzamide]
7 | 579 nM | 590 nM | > 9890 nM |  |  |  | Cc1ccc2c(NCc3ccc(NC(=O)c4ccc(F)cc4)cc3)nc(N(C)Cc3ccccc3)nc2c1 [Example 203, N-{4-[({2-[benzyl(methyl)amino]-7-methylquinazolin-4-yl}amino)methyl]phenyl}-4-fluorobenzamide]
8 | 85 nM | 168 nM | > 4590 nM |  |  |  | Cc1ccc2c(NCc3ccc(NC(=O)C4CCN(Cc5ccc(F)cc5F)CC4)cc3)nc(N(C)C)nc2c1 [Example 254, 1-(2,4-difluorobenzyl)-N-[4-({[2-(dimethylamino)-7-methylquinazolin-4-yl]amino}methyl)phenyl]piperidine-4-carboxamide]
9 |  |  |  | 692 nM | 806 nM | > 2340 nM | CN(C)c1cccc(-c2ccc3nc(N(C)C)nc(NCc4ccc(C(=O)Nc5ccc(F)cc5)cc4)c3c2)c1 [Example 170]
10 | 453 nM | 229 nM | > 2330 nM |  |  |  | CN(C)c1ccc(-c2ccc3nc(N(C)C)nc(NCc4ccc(NC(=O)c5ccc(F)cc5)cc4)c3c2)cn1 [Example 59, N-{4-[({2-(dimethylamino)-6-[6-(dimethylamino)pyridin-3-yl]quinazolin-4-yl}amino)methyl]phenyl}-4-fluorobenzamide]
11 | 203 nM | 215 nM | > 7870 nM |  |  |  | Cc1ccc2c(NCc3ccc(NC(=O)C4CCN(Cc5c(F)cc(F)cc5F)CC4)cc3)nc(N(C)C)nc2c1 [Example 260, N-[4-({[2-(dimethylamino)-7-methylquinazolin-4-yl]amino}methyl)phenyl]-1-(2,4,6-trifluorobenzyl)piperidine-4-carboxamide]
12 | > 2980 nM | > 2980 nM | > 23900 nM |  |  |  | CNc1nc(NCc2ccc(NC(=O)c3cccnc3Cl)cc2)c2ccccc2n1 [Example 7, 2-chloro-N-[4-({[2-(methylamino)quinazolin-4-yl]amino}methyl)phenyl]nicotinamide]
13 | 1190 nM | 1760 nM | > 16800 nM |  |  |  | CN(C)c1nc(NCc2ccc(NC(=O)c3ccc(Cl)nc3)cc2)c2ccc(I)cc2n1 [Example 110, 6-chloro-N-[4-({[2-(dimethylamino)-7-iodoquinazolin-4-yl]amino}methyl)phenyl]nicotinamide]
14 | 5430 nM | 9640 nM | > 9470 nM |  |  |  | CCN(CC)c1nc(NCc2ccc(NC(=O)c3ccc(Cl)cc3)cc2)c2cc(C(F)(F)F)ccc2n1 [Example 165, 4-chloro-N-[4-({[2-(diethylamino)-6-(trifluoromethyl)quinazolin-4-yl]amino}methyl)phenyl]benzamide]
15 | 853 nM | 965 nM | > 8090 nM |  |  |  | Cc1ccc2c(NCc3ccc(NC(=O)C4CCN(Cc5ccccc5)CC4)cc3)nc(N3CCC(N4CCCC4)CC3)nc2c1 [Example 135, 1-benzyl-N-[4-({[7-methyl-2-(4-pyrrolidin-1-ylpiperidin-1-yl)quinazolin-4-yl]amino}methyl)phenyl]piperidine-4-carboxamide]
16 | 1440 nM | 2270 nM | > 8840 nM |  |  |  | Cc1ccc2c(NCc3ccc(NC(=O)C4CCN(Cc5ccccc5)CC4)cc3)nc(N(C)CCN(C)C)nc2c1 [Example 144, 1-benzyl-N-{4-[({2-[[2-(dimethylamino)ethyl](methyl)amino]-7-methylquinazolin-4-yl}amino)methyl]phenyl}piperidine-4-carboxamide]
17 | 492 nM | 738 nM | > 5460 nM |  |  |  | CCN(CC)c1nc(NCc2ccc(NC(=O)c3ccc(F)cc3)cc2)c2cc(C)ccc2n1 [Example 43, N-[4-((2-(diethylamino)-6-methylquinazolin-4-ylamino)methyl)phenyl)-4-fluorobenzamide]
18 | 1070 nM | 888 nM | 1520 nM |  |  |  | CNc1nc(NCc2ccc(NC(=O)c3ccc(Cl)nc3)cc2)c2cc(OC)c(OC)cc2n1 [Example 9, 6-chloro-N-[4-({[6,7-dimethoxy-2-(methylamino)quinazolin-4-yl]amino}methyl)phenyl]nicotinamide]
19 | 1450 nM | 1210 nM | > 10000 nM |  |  |  | CNc1nc(NCc2ccc(NC(=O)c3ccc(Cl)cc3)cc2)c2cc(-c3ccco3)cc(C)c2n1 [Example 67, 4-chloro-N-[4-({[6-(2-furyl)-8-methyl-2-(methylamino)quinazolin-4-yl]amino}methyl)phenyl]benzamide]
20 | 1270 nM | 1740 nM | > 2830 nM |  |  |  | O=C(Nc1ccc(CNc2nc(N3CCCC3)nc3ccccc23)cc1)c1ccc(F)cc1 [Example 119, 4-fluoro-N-(4-{[(2-pyrrolidin-1-ylquinazolin-4-yl)amino]methyl}phenyl)benzamide]
21 | 4320 nM | 4280 nM | > 11600 nM |  |  |  | CN(C)c1nc(NCc2ccc(NC(=O)Nc3ccc(F)cc3)cc2)c2ccccc2n1 [Example 182, N-[4-({[2-(dimethylamino)quinazolin-4-yl]amino}methyl)phenyl]-N′-(4-fluorophenyl)urea]
22 | 1230 nM | 1350 nM | > 16700 nM |  |  |  | Cc1ccc2c(NCc3ccc(NC(=O)C4CCN(Cc5ccccc5)CC4)cc3)nc(N(C)CCc3ccccn3)nc2c1 [Example 145, 1-benzyl-N-{4-[({7-methyl-2-[methyl(2-pyridin-2-ylethyl)amino]quinazolin-4-yl}amino)methyl]phenyl}piperidine-4-carboxamide]
23 | 1650 nM | 2320 nM | > 5770 nM |  |  |  | CNc1nc(NCc2ccc(NC(=O)c3cc(F)cc(F)c3)cc2)c2cc(C)ccc2n1 [Example 41, 3,5-difluoro-N-[4-({[6-methyl-2-(methylamino)quinazolin-4-yl]amino}methyl)phenyl]benzamide]
24 | 3680 nM | 1860 nM | > 16300 nM |  |  |  | Cc1ccc2c(NCc3ccc(NC(=O)c4ccc(F)cc4)cc3)nc(N3CCN(C=O)CC3)nc2c1 [Example 217, 4-fluoro-N-[4-({[2-(4-formylpiperazin-1-yl)-7-methylquinazolin-4-yl]amino}methyl)phenyl]benzamide]
25 | 1530 nM | 1770 nM | > 5300 nM |  |  |  | CNc1nc(NCc2ccc(NC(=O)c3cc(F)c(Cl)nc3Cl)cc2)c2ccccc2n1 [Example 8, 2,6-dichloro-5-fluoro-N-[4-({[2-(methylamino)quinazolin-4-yl]amino}methyl)phenyl]nicotinamide]
26 | 213 nM | 373 nM | > 9280 nM |  |  |  | COc1ccc(CN2CCC(C(=O)Nc3ccc(CNc4nc(N(C)C)nc5cc(C)ccc45)cc3)CC2)cc1 [Example 250, N-[4-({[2-(dimethylamino)-7-methylquinazolin-4-yl]amino}methyl)phenyl]-1-(4-methoxybenzyl)piperidine-4-carboxamide]
27 | 795 nM | 850 nM | > 1370 nM |  |  |  | O=C(Nc1ccc(CNc2nc(NC3CCCC3)nc3ccccc23)cc1)c1ccc(F)cc1 [Example 120, N-[4-({[2-(cyclopentylamino)quinazolin-4-yl]amino}methyl)phenyl]-4-fluorobenzamide]
28 | 3490 nM | > 2110 nM | > 8440 nM |  |  |  | O=C(Nc1ccc(CNc2nc(N3CCC3)nc3ccc(C(F)(F)F)cc23)cc1)C1CCN(Cc2ccc(F)cc2)CC1 [Example 155, N-[4-({[2-azetidin-1-yl-6-(trifluoromethyl)quinazolin-4-yl]amino}methyl)phenyl]-1-(4-fluorobenzyl)piperidine-4-carboxamide]
